Experimental data: patent US20180271863A1, “TARGETING P2 PURINERGIC RECEPTORS TO TREAT HEPATOCELLULAR CARCINOMA (HCC)” (Baylor College of Medicine, priority 2015, published 2018)

Assays:
[1] = test system: Huh7 cells; assay: Western blotting for hippo pathway phosphorylation (Mst1/2, LATS, Yap) in Huh7 cells; assay type: cell-based, human; details: for Mst1/2 phosphorylation: Huh7, serum free 24 hours, as early as 5 minutes, sustained at 4 hours; for induction of Yap phosphorylation: Huh7, 12 h treatment
Protocol: Total protein extracts were obtained by homogenizing cells in total lysis buffer and analyzed by Western blotting as described recently (Oncotarget 2015; 6:41162-41179). […] Therefore, Applicants performed in vitro studies to test whether activation of P2 purinergic receptors may affect the hippo pathway and its downstream effectors. Huh7 cells—human derived hepatocellular carcinoma cells—maintained in serum free media for 24 hours—were treated with P2 purinergic receptor agonists. […] ADP treatment alone was also sufficient to induce LATs phosphorylation (2 h-1.7 fold, 4 h-1.5 fold) (FIG. 20B). […] Hippo kinases Mst1/2 and Lats1/2 work through a phosphorylation cascade to phosphorylate Yap, thereby retaining Yap in the cytoplasm. In spite of nucleotide-mediated Mst1/2 and Lats phosphorylation, ATP, ADP and ATPγS treatment was individually insufficient to induce Yap phosphorylation. […] Similarly, ATP treatment alone increased nuclear YAP protein expression (1.7 fold) (FIG. 20D).

[2] = test system: Huh7 cells; assay: qRT-PCR of YAP target genes in Huh7 cells; assay type: cell-based, human; details: 24 h treatment
Source text: Total RNA was isolated from human livers or cells and was amplified by qRT-PCR as described recently (Oncotarget 2015; 6:41162-41179). Next, Applicants tested whether extracellular nucleotide treatment may have an effect on YAP target genes important in hepatocellular carcinoma. […] Moreover, P2X3 antagonist (AF-353) pretreatment attenuated ATP mediated induction of survivin (FIG. 20G).

[3] = test system: human hepatocytes; assay: MTT assay of cell proliferation and viability, human hepatocytes; assay type: cell-based; details: 18 h treatment
Protocol: (§1) Normal human primary hepatocytes isolated from healthy adults (no known history of HCC) in suspension or freshly-frozen prior to shipment (Cryoport Systems, CA) were purchased from Triangle Research Labs, NC. Fresh hepatocytes were plated on collagen-coated tissue culture plates or glass coverslips in Williams E complete media with additives (10% fetal bovine serum, 2 mM glutamine, […] insulin, 4 ng/ml glucagon, […] transferrin, 2.5 ng/ml sodium selenite, 10,000 U/ml penicillin, […] streptomycin, 50 g/ml gentamycin) for 3 h to ensure hepatocyte adherence to plates. Subsequently, hepatocytes were maintained in Williams E minimal media free from serum and growth factors for 24 h prior to treatment. Human hepatocellular carcinoma derived Huh7, and Hep3B, were cultured in Minimum Essential Medium Eagle (MEM); SNU-387 was cultured in Roswell Park Memorial Institute (RPMI) medium and PLC/PRF/5 cultured in Dulbecco's Modified Eagle's medium (DMEM). All maintenance culture media were supplemented with 10% fetal bovine serum (FBS), L-Glutamine (2 mM), penicillin (100 units/ml) and streptomycin ([…]) at 37° C. and 5% CO2. […]
(§2) Cell viability was determined using the 3-(4, 5-dimethylthiazol-2-yl)-2,5-diphenyltetrazolium (MTT, Sigma) assays. […] After shaking the plates for 30 min, the absorbance at 570 nm was measured (background subtraction at […]).

[4] = test system: PLC/PRF/5 cells; assay: Western blotting of cyclin D3 in PLC/PRF/5 cells; assay type: cell-based, human; details: ATP 24 hours, serum-free
Protocol: HCC cells (Huh7, Hep3B, SNU-387, and PLC/PRF/5) maintained in serum-free conditions were treated with ATP for 24 hours and total protein extracts were analyzed by Western blotting for cyclin D3 expression. The α-tubulin was utilized as the protein loading control. Data represents mean±SD, n=3-6, *p<0.05 vs untreated (un).
Normal human primary hepatocytes isolated from healthy adults (no known history of HCC) in suspension or freshly-frozen prior to shipment (Cryoport Systems, CA) were purchased from Triangle Research Labs, NC. […]
Total protein extracts were obtained by homogenizing cells in total lysis buffer (50 mM Tris-HCl, pH 7.5, 0.5 M NaCl, 2 mM EGTA, 2 mM EDTA, 1.0% Triton X-100, 0.25% Deoxycholate, 1 m/ml pepstatin, 1.0 m/ml leupeptin, 1.0 m/ml aprotinin, 1.0 mM phenylmethylsulfonyl fluoride, 1.0 mM Dithiothreitol, 2.0 mM activated Na3VO4, and 2.0 mM NaF) and centrifuging at 14,000 rpm for 10 min (4° C.). Equal amounts of total proteins as determined by BCA protein Assay (Pierce, Rockford, Ill.) were analyzed by Western blotting. […]

[5] = test system: PLC/PRF/5 cells; assay: MTT assay of cell proliferation and viability, PLC/PRF/5; assay type: cell-based, human; details: ATP 100 μM, 18 h
Protocol: as §1, §2

[6] = test system: Huh7 cells; assay: qRT-PCR of cyclin mRNA in Huh7 cells; assay type: cell-based, human; details: 6 h treatment
Protocol: Normal human primary hepatocytes isolated from healthy adults (no known history of HCC) in suspension or freshly-frozen prior to shipment (Cryoport Systems, CA) were purchased from Triangle Research Labs, NC. Fresh hepatocytes were plated on collagen-coated tissue culture plates or glass coverslips in Williams E complete media with additives (10% fetal bovine serum, 2 mM glutamine, […] insulin, 4 ng/ml glucagon, […] transferrin, 2.5 ng/ml sodium selenite, 10,000 U/ml penicillin, […] streptomycin, 50 g/ml gentamycin) for 3 h to ensure hepatocyte adherence to plates. Subsequently, hepatocytes were maintained in Williams E minimal media free from serum and growth factors for 24 h prior to treatment. Human hepatocellular carcinoma derived Huh7, and Hep3B, were cultured in Minimum Essential Medium Eagle (MEM); SNU-387 was cultured in Roswell Park Memorial Institute (RPMI) medium and PLC/PRF/5 cultured in Dulbecco's Modified Eagle's medium (DMEM). All maintenance culture media were supplemented with 10% fetal bovine serum (FBS), L-Glutamine (2 mM), penicillin (100 units/ml) and streptomycin ([…]) at 37° C. and 5% CO2. Cells were maintained in serum free media (containing 2 mM L-Glutamine, 100 units/ml penicillin and ([…])) streptomycin for 24 h prior to treatment. Total RNA was isolated from human livers or cells using Trizol Reagent according to manufacturer's instructions (Invitrogen, NY). Complementary DNA (cDNA) synthesis was performed by reverse transcription of total RNA (2 μg) with high capacity cDNA reverse transcription kit (Applied Biosystems, Foster city, CA). The cDNA product was amplified by qRT-PCR in Step One Plus Real-Time PCR system using SYBR Green PCR Master Mix (Applied Biosystems, Grand Island, N.Y.). Quantitative expression values were determined using the […] as specified by manufacturers using GAPDH as a control.

Structure (SMILES)	Mst1/2 phosphorylation [1]	induction of Yap phosphorylation [1]	AREG gene expression [2] [fold]	CTGF gene expression [2] [fold]	Sox9 gene expression [2] [fold]	cyclin E gene expression [2] [fold]	survivin gene expression [2] [fold]	increase in cell proliferation and viability (MTT) [3] [%]	cyclin D3 protein expression [4] [fold]	increase in cell proliferation and viability (MTT) [5] [%]	Cyclin D3 mRNA expression vs untreated cells [6] [fold]
Nc1ncnc2c1ncn2[C@@H]1O[C@H](COP(=O)(O)OP(=O)(O)OP(=O)(O)O)[C@@H](O)[C@H]1O [ATP]	significantly induced	insufficient	5.1	3.4	2.0	2.1	1.1	27	1.4	43	–
Nc1ncnc2c1ncn2[C@@H]1O[C@H](COP(=O)(O)OP(=O)(O)OP(O)(O)=S)[C@@H](O)[C@H]1O [ATPγS]	significantly induced	insufficient	3.3	2.2	1.6	2.0	1.1	64	–	–	2.1
